This is an account of results in patent publication US20240279202A1 (NURIX THERAPEUTICS, INC., priority 2021, published 2024).

The target in experiment [1] is T1, ITK (Homo sapiens, UniProt Q08881).
T1 sequence (Q08881 1-620): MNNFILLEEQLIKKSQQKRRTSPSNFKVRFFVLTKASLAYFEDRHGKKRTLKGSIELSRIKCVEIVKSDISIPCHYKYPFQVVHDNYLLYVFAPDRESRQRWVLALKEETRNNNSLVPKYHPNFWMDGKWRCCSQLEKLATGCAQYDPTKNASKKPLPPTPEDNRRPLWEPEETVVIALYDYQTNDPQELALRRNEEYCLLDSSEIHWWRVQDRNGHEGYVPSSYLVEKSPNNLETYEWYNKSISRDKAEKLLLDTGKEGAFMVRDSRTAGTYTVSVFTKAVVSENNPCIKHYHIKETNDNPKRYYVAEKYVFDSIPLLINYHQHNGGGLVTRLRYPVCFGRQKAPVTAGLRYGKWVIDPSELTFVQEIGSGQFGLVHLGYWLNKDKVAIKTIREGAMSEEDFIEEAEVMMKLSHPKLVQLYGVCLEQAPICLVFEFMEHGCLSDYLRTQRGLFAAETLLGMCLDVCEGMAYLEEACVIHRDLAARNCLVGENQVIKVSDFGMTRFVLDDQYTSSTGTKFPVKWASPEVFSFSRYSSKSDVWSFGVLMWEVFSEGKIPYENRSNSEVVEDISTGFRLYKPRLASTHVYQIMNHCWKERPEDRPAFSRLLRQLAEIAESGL
Nature of the experiment: ITK degradation MSD (Meso Scale Discovery) assay. Type of experiment: cell-based. To be noted: Jurkat or Molt4 cells, 4 or 6 hrs. On the set-up: either human Jurkat (Clone E6-1 ATCC TIB-152) or Motl4 (ATCC CRL-1552), were plated; endogenous in cells; host or cells: Jurkat clone E6-1 (ATCC TIB-152) or Molt4 (ATCC CRL-1552). The method, then:
ITK Degradation MSD (Meso Scale Discovery) Assay Compound dilution series (7-point, 5 fold dilutions in DMSO, rows B-H with replicate in Column 1⁄2, 3⁄4, 5⁄6, 7,8, at 2000× the final required concentrations were prepared in 96 well plates (Falcon, cat. no. 353077). Row A, Column 1-8 were control DMSO. The 2000× solutions ranged from 2 mM to 128 nM (final assay concentration range 1 μM to […]). The 2000× solutions were added to cells in […], for a final DMSO concentration of 0.5% and final assay compound concentration of 1×. For the cells, either human Jurkat (Clone E6-1 ATCC TIB-152) or Motl4 (ATCC CRL-1552), were plated at 1×10^6 cells/mL, 100 μL/well ([…]) in complete RPMI (10% FBS, 1% L-glutamine). Cells were incubated for 4 or 6 hrs at 32° C./6% CO2. Following incubation, plates were centrifuged at 1200 rpm for 5 min. supernatant was removed and 50 μL of cell lysis buffer ((MSD Tris lysis buffer (R60TX), Complete Mini EDTA-free protease inhibitor (Sigma 11836170001), Protease Inhibitor Cocktail (Sigma, P2714), Phosphatase Inhibitor Cocktail 2 and 3 (Sigma, P5726 and P0044), and Benzonase (Sigma, E1014)) was added to each well. Plates were sealed and shook at 4° C. for 30 min. Plates were centrifuged and 45 μL was removed for plate assays. Assay plate preparation: Meso Scale Discovery (MSD) multi-array sm spot 96 well plates (Goat anti-Rabbit L^45-RA), were blocked with 3% BSA blocking buffer (3% Bovine Serum Albumin (Sigma A3059)+TBS 0.2% Tween-20) for 1 hr with gentle rocking at room temperature. Plates were then washed with 200 μL of 1× TBST (TBS 0.2% Tween-20) 3 times. After last wash, liquid was removed and 50 μL per well of capture antibody (abcam ITK Y402-ab32507) was added to plates at a 1:1000 dilution in blocking buffer (above). Plates were sealed and rocked at room temperature for 2 hrs. Plates were then washed 3 times with 200 μL of 1× TBST. After last wash, liquid was removed and 45 μL of cell lysate (from above) was added to each plate. Plates were sealed and rocked overnight at 4° C. Next day, cell lysates were removed, and assay plates were washed 3 times with 200 μL of 1× TBST. After last wash, liquid was removed and detection antibody (CST ITK (2F12) #2380) was added at 50 μL per well at a dilution of 1:1000 in blocking buffer. Plates were sealed and rocked at room temperature for 2 hrs. Plates were washed 3 times with 200 uL of 1× TBST. After last wash, liquid was removed, MSD Mouse anti-Rabbit sulfo tag (R32AC-1) was diluted to 1:1000 in blocking buffer. 50 μL was added to each well on the plate. Plates were sealed and incubated at room temperature for 1 hr. Plates were washed 3 times with 200 μL of 1× TBST. After last wash, liquid was removed and 150 μL of 1× MSD Read Buffer T ([…]) was then added to each well for ECL read out. For reading ECL signal, plate is read on a Meso Scale Discovery (MSD) MESO Sector S 600 plate reader. Percent ITK in then calculated as described below. Percent ITK remaining per sample was calculated as follows: [formula] Using Graphpad Prism, % ITK remaining values were plotted as a function of compound concentration. To determine DC50 and Dmax values, resulting curves were fit to the Prism curve-fitting equation “log(inhibitor) vs response-Variable slope (four parameters)” (reported best fit value IC50 used as DC50).

Experiment [2] addresses T2, ITK (Mus musculus, UniProt Q03526).
T2 construct: mice were sacrificed and splenocytes were isolated and used to prepare protein lysates; from tissue; host or cells: mouse splenocytes (spleen) after oral dosing
T2 sequence (Q03526 1-625): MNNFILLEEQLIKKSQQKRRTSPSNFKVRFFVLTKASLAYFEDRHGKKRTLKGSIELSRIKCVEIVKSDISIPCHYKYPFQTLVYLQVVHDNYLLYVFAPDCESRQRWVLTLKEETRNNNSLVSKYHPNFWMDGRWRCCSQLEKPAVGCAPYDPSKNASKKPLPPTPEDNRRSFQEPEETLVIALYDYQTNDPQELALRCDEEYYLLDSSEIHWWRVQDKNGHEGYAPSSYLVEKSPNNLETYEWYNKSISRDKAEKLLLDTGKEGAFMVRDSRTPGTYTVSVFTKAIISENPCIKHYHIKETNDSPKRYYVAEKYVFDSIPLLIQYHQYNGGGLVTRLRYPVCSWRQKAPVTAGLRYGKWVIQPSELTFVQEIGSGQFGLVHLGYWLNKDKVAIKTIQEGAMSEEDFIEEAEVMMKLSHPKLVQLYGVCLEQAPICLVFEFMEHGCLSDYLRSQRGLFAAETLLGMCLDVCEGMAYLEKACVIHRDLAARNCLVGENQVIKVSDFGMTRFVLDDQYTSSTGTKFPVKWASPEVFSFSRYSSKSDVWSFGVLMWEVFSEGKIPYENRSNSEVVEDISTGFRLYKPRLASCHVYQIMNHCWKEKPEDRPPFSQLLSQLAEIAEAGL
Nature of the experiment: Mouse PD assay for ITK degradation (Western blot, splenocytes after oral administration). To be noted: percent ITK remaining in mouse splenocytes relative to vehicle, 90 mpk PO, 6 h. Format: in vivo. The method, then:
Compounds 1, 3, 7, and 42 were formulated and administered at 90 mg/kg to mice by oral gavage (PO). Blood was collected at defined time points (after 1, 2, and 6 hours) after compounds administration to determine PK parameters. Concentration increased through 6 hours. Six hours later mice were sacrificed and splenocytes were isolated and used to prepare protein lysates. Total protein levels were determined in the lysates using the BCA assay according to standard methods. Equal amounts of protein were then analyzed by Western blot to determine the level of ITK expression in each sample. ITK band intensities were measured using Alpha View software and the percent of ITK remaining in each test animal was determined relative to the mean of ITK levels in vehicle control samples.
After 6 hours, splenocytes cells were harvested. ITK was evaluated by Western blotting.
Compounds 43, 4, 5, 10, 11, 12, 44, 14, 3, and 13 were administered to mice orally. After 6 hours, splenocytes cells were harvested. ITK was evaluated by Western blotting. Media was removed and cell pellets were lysed in 100 uL lysis buffer (RIPA buffer (Fisher, PI89901), cOmplete Mini EDTA-free protease inhibitor (Sigma 11836170001), Protease Inhibitor Cocktail (Sigma, P2714), Phosphatase Inhibitor Cocktail 2 and 3 (Sigma, P5726 and P0044), Benzonase (Sigma, E1014)). Cells were lysed overnight at −20° C. Following thaw, cells were centrifuged for 10 min at 13000 rpm, then transferred to new tube. Protein levels were determined by BCA Assay performed according to manufacturer's protocol (EMID Millipore, cat. no. 71285-3). Samples were combined with (4×) LDS Sample Buffer and (10×) Reducing Agent and H2O to equally load 20 ug protein per lane of a 26-well NuPAGE 4-12% Bis-Tris protein gel (1.0 mm, Thermo cat. no. NP0326). Samples were separated by running gels at constant 150 V in NuPAGE MES SDS Running Buffer. Following electrophoresis, proteins were transferred to nitrocellulose membranes using an iBlot Gel Transfer Device and iBlot Gel Transfer Stacks (Thermo cat. no. IB21001 and IB301001) and transfer method P3 (20V for 7 min). Membranes were blocked for 1 hr in 5% milk solution (TBS (0.2% Tween-20)). Following blocking, membranes were incubated with primary antibody (1:1000 CST ITK (2F12) #2380) overnight at 4° C. with gentle shaking. Blots were washed 2× in TBS (0.2% Tween-20), 30 min per wash. Following washes, blots were incubated in secondary HRP-conjugated antibody (Promega anti-Mouse IgG (H+L) HRP cat. no. W4021), 1:5000 in 5% milk solution (TBS (0.2% Tween-20)), for 1 hr at room temperature with gentle shaking. Blots were washed 2× in TBS (0.2% Tween-20), 30 min per wash. Blots were incubated with 1:1 mix of ECL reagents 1 & 2 (Amersham ECL Western Blotting Detection Reagent, cat. no. RPN2106) for 2 min at room temperature. Bands were visualized using a Protein Simple imager. Blots were then re-probed with a combination of anti-actin antibody (Sigma Monoclonal Mouse Anti-3-Actin (clone AC-15), cat. no. A5441) and secondary H1RP-conjugated antibody (Promega anti-Mouse IgG (H+L) HRP, cat. no. W4021) and similar steps were taken for incubation, wash, detection and visualization steps as above. The data was analyzed using Alpha View software. The densitometric reading for each sample band was normalized to that of the corresponding actin band per lane. Approximate % ITK remaining per sample was calculated as follows: […]
Once % ITK remaining has been calculated for each sample, groups are averaged together to show an means % ITK normalized to actin and relative to control.
Compounds 16, 17, and 18 were administered to mice orally. After 6 hours or 24 hours, splenocytes cells were harvested. ITK was evaluated by Western blotting. Plasma concentrations were determined by LC/MS/MS. Plasma samples were protein precipitated by addition of 100 μl of acetonitrile containing 50 ng/ml of internal standard. The resulting mixture was vortexed and centrifuged at 4000 RPM for 5 minutes. […]
For orientation: Immunoblotting shows a protein as a band on a membrane.

As usually defined, the DC50 is the concentration giving 50% degradation. Usually Dmax stands for the largest share of the target that was removed. A higher Dmax goes with deep degradation. On ITK [1], `C[C@@]12Cc3[nH]nc(C(=O)Nc4cnn([C@H](c5ccccc5)C5CN(CCOCCOCCOCCOCCOCCNc6cccc7c6C(=O)N(C6CCC(=O)NC6=O)C7=O)C5)c4)c3C[C@@H]1C2(F)F` (stereo partly drawn) [Compound 31, (4aS,5aR)-N-(1-((1S)-(1-(17-((2-(2,6-dioxopiperidin-3-yl)-1,3-dioxoisoindolin-4-yl)amino)-3,6,9,12,15-pentaoxaheptadecyl)azetidin-3-yl)(phenyl)methyl)-1H-pyrazol-4-yl)-5,5-difluoro-5a-methyl-1,4,4a,5,5a,6-hexahydrocyclopropa[f]indazole-3-carboxamide] registered a DC50 of 44 nM and a Dmax of 95%.

On ITK [1], `C[C@@]12Cc3[nH]nc(C(=O)Nc4cnn([C@H](c5ccccc5)C5CN(C(=O)CCOCCNc6cccc7c6C(=O)N(C6CCC(=O)NC6=O)C7=O)C5)c4)c3C[C@@H]1C2(F)F` (stereo partly drawn) [Compound 27, (4aS,5aR)-N-(1-((1S)-(1-(3-(2-((2-(2,6-dioxopiperidin-3-yl)-1,3-dioxoisoindolin-4-yl)amino)ethoxy)propanoyl)azetidin-3-yl)(phenyl)methyl)-1H-pyrazol-4-yl)-5,5-difluoro-5a-methyl-1,4,4a,5,5a,6-hexahydrocyclopropafindazole-3-carboxamide] gave a 50% degradation concentration (DC50) of 3.8 nM and a Dmax of 92%.

For the compound `CC(C1CN(C(=O)C2CN(C3CCN(c4ccc5c(c4)C(=O)N(C4CCC(=O)NC4=O)C5=O)CC3)C2)C1)n1cc(NC(=O)c2n[nH]c3c2C[C@@H]2C(F)(F)[C@]2(C)C3)cn1` (stereo partly drawn) [Compound 39, (4aS,5aR)-N-(1-(1-(1-(1-(1-(2-(2,6-dioxopiperidin-3-yl)-1,3-dioxoisoindolin-5-yl)piperidin-4-yl)azetidine-3-carbonyl)azetidin-3-yl)ethyl)-1H-pyrazol-4-yl)-5,5-difluoro-5a-methyl-1,4,4a,5,5a,6-hexahydrocyclopropa[f]indazole-3-carboxamide], at ITK [1], the DC50 was 0.88 nM and the Dmax came to 94%.

Consider `CN(C(=O)CC1CCN(c2ccc(C3CCC(=O)NC3=O)cn2)CC1)c1ccc2cc(-c3n[nH]c4c3C[C@@H]3C(F)(F)[C@]3(C)C4)[nH]c2c1` (stereo partly shown) [Compound 20], for which the “ITK (%) 90 mpk PO, 6 h” value on ITK [2] is recorded as 66%.
